Measurements as given in publication PMC6983048 (Molecules, 2019).
Read-outs that look alike come from different tables or passages of the source.

What was measured:
[1] = system: human DHFR (hDHFR); conditions: relative to TMP; cited from earlier work
[2] = biological target: T1, recombinant human DHFR enzyme (Homo sapiens, UniProt P00374); test: Dihydrofolate reductase (DHFR) inhibition assay; type: biochemical; conditions: pH 7.5, 22 °C, absorbance 340 nm
T1 construct: purchased
T1 sequence (P00374 1-187): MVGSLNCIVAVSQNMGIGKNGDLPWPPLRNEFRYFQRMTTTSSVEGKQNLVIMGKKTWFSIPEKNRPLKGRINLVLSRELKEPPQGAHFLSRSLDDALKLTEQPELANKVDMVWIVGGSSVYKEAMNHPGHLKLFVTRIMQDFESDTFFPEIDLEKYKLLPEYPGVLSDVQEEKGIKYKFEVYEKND
Description: The procedure for detection of DHFR activity inhibition included preparation of a test mixture in a 1.0 mL quartz cuvette for the spectrophotometric method. Assay buffer—1× for DHFR (pH 7.5) and 1.5 × 10^−3 units of DHFR were added to the appropriate tube and thoroughly mixed. […] After mixing accurately, the reaction was initiated by adding 10 mM dihydrofolic acid (5 µL for each reaction) and a kinetics program was immediately started. The changes in absorbance (ΔOD/ min) were measured by the spectrophotometer Specord 200Plus (Analytikjena, Germany) at 340 nm and 22 °C, and the kinetic program (reading every 15 s for 2.5 min) according to the instructions supplied with the set and recommended by the producer.

[3] = system: T4 coliphage DNA; test: Ethidium displacement assay, DNA-binding constants; conditions: apparent association constant
Description: (§1) The fluorescence of DNA solutions (calf thymus DNA, T4 coliphage DNA, poly(dA-dT)2, and poly(dG-dC)2 with the investigated compound (final concentrations 10, 50, 100 µM) was measured by the fluorescence spectrophotometer Infinite M200 TECAN at room temperature according to the procedure described above. Then, the concentration, which reduced fluorescence to 50% was determined for each compound. The data points of fluorescence intensity were fitted to the theoretical curves, with one or two different iterative nonlinear least squares computer routines. The apparent binding constant was calculated from KEtBr [EtBr] = Kapp [drug], where [drug] = the concentration of the tested compound at 50% reduction of fluorescence and KEtBr and [EtBr] are known. TMP and MTX were also investigated.

[4] = system: poly(dA-dT)2; test: Ethidium displacement assay, DNA-binding constants; conditions: apparent association constant
Description: as §1

[5] = system: calf thymus DNA; test: Ethidium displacement assay, DNA-binding constants; conditions: apparent association constant
Description: as §1

[6] = system: poly(dG-dC)2; test: Ethidium displacement assay, DNA-binding constants; conditions: apparent association constant
Description: as §1

[7] = system: poly(dG-dC)2 (DNA, polymer) GC; test: ethidium bromide displacement fluorescence; conditions: Na+ 1 M; 0.1 M Tris pH 8.0, room temperature; ethidium displaced; apparent
[8] = system: pBR322 plasmid; test: Ethidium bromide assay, DNA-binding effects on plasmid pBR322; conditions: for Decrease of Fluorescence: 10 μM compound, plasmid pBR322 with ethidium bromide, 25 °C 30 min, % fluorescence relative to controls (no drug = 100%); for Binding to DNA (pBR322 plasmid), in words: ethidium bromide assay
Description: Each well of a 96-well plate was loaded with Tris buffer containing ethidium bromide (0.1 M Tris, 1 M NaCl, pH 8.0, 0.5 mM EtBr final concentration, 100 μL). […] Fluorescence readings are reported as % fluorescence relative to the controls.

[9] = system: poly(dA-dT)2 (DNA, polymer) AT; test: ethidium bromide displacement fluorescence; conditions: Na+ 1 M; 0.1 M Tris pH 8.0, room temperature; ethidium displaced; apparent
[10] = system: DHFR; set-up: method as in PMID 30991189; conditions: cited from earlier work
[11] = system: poly(dA-dT)2; set-up: method as in PMID 2540332; conditions: KEtBr, known constant of ethidium bromide; cited from earlier work
[12] = system: T4 coliphage DNA; set-up: method as in PMID 2540332; conditions: KEtBr, known constant of ethidium bromide; cited from earlier work
[13] = system: poly(dG-dC)2; set-up: method as in PMID 2540332; conditions: KEtBr, known constant of ethidium bromide; cited from earlier work
[14] = system: calf thymus DNA; set-up: method as in PMID 2540332; conditions: KEtBr, known constant of ethidium bromide; cited from earlier work
[15] = system: hDHFR; set-up: method as in PMID 28152430; conditions: Wang's compounds; read-out: IC50 (Figure 1); cited from earlier work
[16] = system: pBR322 plasmid; set-up: method as in PMID 27008800; conditions: same conditions; cited from earlier work
[17] = Sabry's compounds, read-out: IC50 (Figure 1)
[18] = read-out: DHFR inhibitory potency IC50

| IC50 [2] [µM] | Decrease of Fluorescence [8] [%] | Structure (SMILES) | Kapp T4 DNA [3] [M⁻¹] | Kapp Poly (dA-dT)2 [4] [M⁻¹] | Kapp Calf Thymus DNA [5] [M⁻¹] | Kapp Poly (dG-dC)2 [6] [M⁻¹] | Kapp [7] | Kapp [9] | further results |
| --- | --- | --- | --- | --- | --- | --- | --- | --- | --- |
| – | – | CCc1nc(N)nc(N)c1C#CCc1cc(OC)c(OC)c(OC)c1 [C] | – | – | – | – | – | – | potency greater than TMP [1]: 3500 fold |
| 21.8 | 71.43 | COc1cc(C(=O)Nc2cnc(N)nc2)cc(OC)c1OC [Compound 1, N-(2-Aminopyrimidin-5-yl)-3,4,5-Trimethoxybenzamide] | 290000 | 1.17e+06 | 240000 | 130000 | 1.3 ± 0.2 × 10^5 M^-1 | 11.7 ± 0.2 × 10^5 M^-1 | – |
| 15.9 | 69.17 | COc1cc(CC(=O)Nc2ccc(N)cc2)cc(OC)c1OC [Compound 5, N-(4-Aminophenyl)-2-(3,4,5 Trimethoxyphenyl)Acetamide] | 680000 | 1.4e+06 | 520000 | 300000 | 3.0 ± 0.2 × 10^5 M^-1 | 14 ± 0.2 × 10^5 M^-1 | – |
| 15.1 | 71.43 | COc1cc(CCC(=O)Nc2ccc(N)cc2)cc(OC)c1OC [Compound 6, N-(4-Aminophenyl)-3-(3,4,5-Trimethoxyphenyl)Propanamide] | 90000 | 420000 | 460000 | 110000 | 1.1 ± 0.2 × 10^5 M^-1 | 4.2 ± 0.2 × 10^5 M^-1 | – |
| – | – | COc1ccc(C(=O)Nc2ccc3nc(SC)n(-c4ccc(OC)cc4)c(=O)c3c2)cc1 [D] | – | – | – | – | – | – | IC50 [10, 17]: 200 µM; IC50 [10, 18]: 0.2 µM |
| – | – | COc1ccc(-n2c(SC)nc3ccc(NC(=O)C4CCCS4)cc3c2=O)cc1 (stereo not drawn) [E] | – | – | – | – | – | – | IC50 [10, 17]: 200 µM |
| – | – | CC[n+]1c(-c2ccccc2)c2cc(N)ccc2c2ccc(N)cc21 [EtBr, Ethidium bromide] | – | – | – | – | – | – | Kapp Poly (dA-dT)2 [11]: 95 ^b* × 10^5 M^−1; Kapp T4 DNA [12]: 1e+07 M⁻¹; Kapp Poly (dG-dC)2 [13]: 9.9e+06 M⁻¹; Kapp Calf Thymus DNA [14]: 1e+07 M⁻¹ |
| – | – | COc1ccc(CCc2ccc3nc(N)nc(N)c3n2)cc1 [F] | – | – | – | – | – | – | IC50 [10, 18]: 0.2 µM; IC50 [15]: 760 µM |
| – | – | COc1cccc(CCc2ccc3nc(N)nc(N)c3n2)c1 [G] | – | – | – | – | – | – | IC50 [15]: 450 µM |
| – | – | COc1cc(CCc2ccc3nc(N)nc(N)c3n2)cc(OC)c1OC [H] | – | – | – | – | – | – | IC50 [15]: 290 µM |
| – | 100 | CN(Cc1cnc2nc(N)nc(N)c2n1)c1ccc(C(=O)N[C@@H](CCC(=O)O)C(=O)O)cc1 [MTX, methotrexate, reference compound] | – | – | – | – | – | – | IC50 [10, 18]: […]; Binding to DNA (pBR322 plasmid), in words [8]: do not bind to DNA |
| – | 100 | COc1cc(Cc2cnc(N)nc2N)cc(OC)c1OC [TMP, 2,4-diamino-5-(3,4,5-trimethoxybenzyl) pyrimidine, reference compound] | – | – | – | – | – | – | Binding to DNA (pBR322 plasmid), in words [8]: do not bind to DNA |

| Structure (SMILES) | IC50 [2] [µM] | Decrease of Fluorescence [8] [%] | Kapp T4 DNA [3] [M⁻¹] | Kapp Poly (dA-dT)2 [4] [M⁻¹] | Kapp Calf Thymus DNA [5] [M⁻¹] | Kapp Poly (dG-dC)2 [6] [M⁻¹] | Kapp [7] | Kapp [9] | further results |
| --- | --- | --- | --- | --- | --- | --- | --- | --- | --- |
| COc1cc(CC(=O)Nc2cnc(N)nc2)cc(OC)c1OC [Compound 2, N-(2-Aminopyrimidin-5-yl)-2-(3,4,5-Trimethoxyphenyl)Acetamide] | 0.99 | 45.18 | 110000 | 390000 | 440000 | 80000 | 0.8 ± 0.2 × 10^5 M^-1 | 3.9 ± 0.2 × 10^5 M^-1 | – |
| COc1cc(CCC(=O)Nc2cnc(N)nc2)cc(OC)c1OC [Compound 3, N-(2-Aminopyrimidin-5-yl)-3-(3,4,5-Trimethoxyphenyl)Propanamide] | – | 69.92 | 780000 | 360000 | 370000 | 50000 | 0.5 ± 0.2 × 10^5 M^-1 | 3.6 ± 0.2 × 10^5 M^-1 | – |
| COc1cc(C(=O)Nc2ccc(N)cc2)cc(OC)c1OC [Compound 4, N-(4-Aminophenyl)-3,4,5-Trimethoxybenzamide] | 1.02 | 80.43 | 390000 | 790000 | 590000 | 160000 | 1.6 ± 0.2 × 10^5 M^-1 | 7.9 ± 0.2 × 10^5 M^-1 | – |
| Cn1cc(NC(=O)c2cc(NC(=O)CN=C(N)N)cn2C)cc1C(=O)NCCC(=N)N [NT, netropsin, reference compound] | – | 74 | 830000 | 8.75e+07 | 870000 | 250000 | 250000 M⁻¹ | 8.75e+07 M⁻¹ | DNA-binding effect (fluorescence) [16]: 74% |
